According to the NIST ThermoML archive (doi:10.1021/je100583z):
Numbers after ± are expanded uncertainties.

Settings: Liquid, Closed cell (Static) method

Row | SMILES | vapor or sublimation pressure (278.15 K) [kPa] | vapor or sublimation pressure (288.15 K) [kPa] | vapor or sublimation pressure (298.15 K) [kPa] | vapor or sublimation pressure (308.15 K) [kPa] | vapor or sublimation pressure (318.15 K) [kPa] | vapor or sublimation pressure (328.15 K) [kPa]
1 | FC(C(F)(F)F)C(F)(F)F [1,1,1,2,3,3,3-heptafluoropropane] | 234 ± 1 | 327 ± 1 | 451 ± 1 | 611 ± 1 | 805 ± 2 | 1040 ± 2
2 | O=C=O [carbon dioxide] | 3960 ± 8 | 5080 ± 10 | 6425 ± 13 | – | – | –
